Results: patent publication US8093025B2, “Bacterial vector” (Helmholtz-Zentrum fuer Infektionsforschung GmbH, priority 2004, dated 2012)

What was measured:
PBAD [1] = test: GFP expression from plasmid pHL238 in bacterial culture after induction, flow cytometry; format: cell-based, Salmonella enterica serovar Typhimurium; details: induction by L-arabinose, vector SL7207[pHL238]
From the text: As an example for a structural gene, plasmid pHL238 (schematically depicted in FIG. 1) comprising the structural gene for green fluorescent protein (GFP) under the control of PBAD was cloned, further comprising the structural gene for the regulator of PBAD, araC under the control of its own promoter Pc, along with the Ampicillin resistance gene as a selection marker, and a high copy number origin of replication from pUC. Regulatory elements originate from plasmid pBAD18 (Guzman et al., J. Bacteriol. 1995 July; 177(14):4121-30)
This bacterial vector is based on Salmonella enterica serovar Typhimurium, strain SL7207, which is a known attenuated invasive salmonella strain in use for experimental vaccination. The salmonella strain was transformed with plasmid pHL238 by electroporation, transformed colonies were selected on LB-medium agar plates containing streptomycin at 30 μg/mL and ampicillin at 100 μg/mL. The resultant transformed strain was bacterial vector SL7207[pHL238]. […] Results are shown in FIG. 2, the thick line for addition of L-arabinose, the thin line without L-arabinose.

CT26 tumor [2] = test: In vivo colonization and luciferase transgene induction in CT26 tumor-bearing mice; design: species or system Balb/c mice
From the text: As a representative for a transgene, the luciferase gene from the firefly Photinus pyralis was used as the reporter gene. As the saccharide inducible promoter element, PBAD from the L-arabinose operon of E. coli was functionally linked to the luciferase gene, the promoter element further being in conjunction with the structural gene for its regulator protein araC under the control of its natural own promoter (PC). The bacterial vector was generated by transforming Salmonella enterica serovar Typhimurium, vaccine strain SL7207, with the plasmid containing the transgene under the control of the saccharide inducible promoter by electroporation.
As an example for an animal having a tumor, Balb/c mice were subcutaneously inoculated abdominally with 10^6 cells of the colon adenocarcinoma cell line CT26. After this tumor generation treatment, mice bearing tumors of approximately 400-600 mm^3 were intravenously injected with 5×10^6 bacteria of the above bacterial vector (SL7207[pHL259]), representing the first component of the pharmaceutical combination, suspended in phosphate buffered saline (PBS). Three days post infection, L-arabinose as the appropriate inductor saccharide, representing the second component of the pharmaceutical combination, was administered intraperitoneally, dissolved in PBS. Subsequently, mice were sacrificed and the tumors, spleens and livers dissected, then transferred into 3 mL of sterile, ice-cold PBS containing 0.1% (vol/vol) Triton X-100.
Tissues were disrupted in a Polytron PG3000 homogenizer (Kinematica, Littau, Switzerland). Homogenates were diluted in PBS and streaked on medium plates with selective antibiotic (ampicillin). Colonies were counted after incubation of plates. As a result, the number of bacteria in respective tissues could be calculated by counting the resulting colony forming units (cfu) for each organ.
The induction of the transgene was determined by measurement of the reporter gene (luciferase) activity from tissue homogenates after dilution (1:1) in 2× luciferase assay lysis buffer (50 mM tris-HCl, 4 mM DTT, 20% (vol/vol) glycerol, 2% (vol/vol) Triton X-100, 2 mg/mL lysozyme, pH 8.3), incubation at 25° C. for 10 minutes, centrifugation at 3,000×g for 3 minutes, 10 μL supernatant were added to 100 mL LARII reagent of the luciferase assay system according to the manufacturer's instructions (Promega, Mannheim, Germany). Luminescence intensity was measured spectrometrically in a luminometer (Lumat LB9507, Berthold, Pforzheim, Germany). Dilution was taken into account when calculating RLU per organ.

PBAD [3] = test: In vivo GFP expression from bacterial vector re-isolated from spleen of infected mice; design: species or system Balb/c mice; details: SL7207[pHL238] i.v., L-arabinose i.v. after 2 days, spleen 4 hours later
Method: Balb/c mice were infected intravenously with a dose of ca. 5×10^6 bacteria in PBS of bacterial vector SL7207[pHL238]. After 2 days, different amounts of L-arabinose dissolved in PBS were administered intravenously into mice. 4 hours after L-arabinose administration mice were sacrificed, spleens were removed, homogenized in PBS containing 0.1% Triton X-100 and lysates were analyzed by two colour flow cytometry.

PBAD [4] = test: GFP expression from bacterial vector within infected J774A1 cells, two colour flow cytometry; format: cell-based, murine; details: SL7207[pHL238] in J774A1 cells, L-arabinose 4 mM, 40 mM, 400 mM in medium, 3 hours
Method: The murine macrophage cell line J774A1 was infected with bacterial vector SL7207[pHL238] of Example 1. Before infection, cells were seeded to 2×10^6 cells per well in a 6-well plate in antibiotic-free medium (IMDM with 10% inactivated fetal calf serum, 2 mM glutamine) and grown for one day in a 5% CO2 atmosphere at 37° C. For infection, SL7207[pHL238] were grown from a glycerol stock overnight at 37° C. on a LB plate supplemented with antibiotics, followed by cultivation in liquid LB medium supplemented with antibiotics for approximately 2 hours at 37° C., shaking at 60 rpm. Bacteria were harvested by centrifugation, washed in PBS, resuspended in cell culture medium and added at a ˜MOI of 10. 30 min after start of infection cells were washed twice with PBS before medium containing gentamycin (50 μg/mL) was added to kill extracellular bacteria. […] GFP expressing bacteria in the lysates were monitored by flow cytometry. In order to differentiate fluorescence of GFP expressing bacteria from autofluorescent cell fragments the so-called two colour flow cytometry method was used (Bumann, Infect. Immun. (2001) 69, 4618-4626.). The analytical results are depicted in FIG. 3, with unspecific background fluorescence substracted. […]

[5] = test system: SL7207 bearing the plasmid of FIG. 8; test: Induced lysis (gene E) of bacterial vector within infected J774A1 cells, CFU; format: cell-based, Salmonella enterica serovar Typhimurium; details: SL7207 with gene E plasmid pHL241, induction period 3 hours
Method: The plasmid pHL241 shown in FIG. 8 was derived from plasmid pHL238 shown in FIG. 1 by exchanging gene gfp against gene E.
For infection, J774A1 cells were cultured and infected with SL7207 bearing the plasmid of FIG. 8 according to the procedure of Example 2. Induction was by addition of L-arabinose to the final concentrations in cell culture medium as given in FIG. 9, for an induction period of 3 hours. Following induction, cells were harvested and lysed by addition of Triton X-100 to a concentration of 1 g/L. For re-isolation, intracellular bacterial vectors were plated on LB-agar containing ampicillin for quantification of viable bacteria as colony forming units (CFU).

CT26 tumor [6] = test: Vector with gene E under Prha and lux under PBAD plus TNFalpha in CT26 tumor mice; format: in vivo, Balb/c mice
From the text: As an example for multifunctional bacterial vectors for use in the pharmaceutical combination according to the invention, vaccine strain SL7207 was genetically manipulated by Tn7 mediated chromosomal integration of the mini-transposon of a plasmid pHL260b, modified from pHL260a by replacing the PBAD promoter by the L-rhamnose inducible promoter (Prha), derived from plasmid pJOE2702 (Stumpp et al., Biospektrum 6, 33-36(2000)). This strain chromosomally contains at least one copy of gene E of bacteriophage phiX174 under the control of the rhamnose inducible promoter (Prha). The resultant strain was then transformed with plasmid pTNFa-lux, containing the bioluminescence operon of Photorhabdus luminescence under control of the PBAD promoter in combination with the mouse TNFalpha gene under the control of the constitutive promoter from beta-lactamase (Pbla).
As described in Example 8, Balb/c mice bearing a CT26 tumor were administered 5×10^6 bacterial vector, suspended in PBS by intravenous administration. […] Upon administration of 120 mg L-arabinose dissolved in PBS intraperitoneally, to the same mice 1 day later, as well as on consecutive days, colonization of tumor tissue by bacterial vectors was monitored by spectrometry, more specifically luminometric analysis of anesthesized mice using a CCD camera.

PBAD [7] = test: In vitro regulation of copy number of plasmid pAEN17 (GFP read-out) in bacterial culture; format: cell-based, Salmonella enterica serovar Typhimurium; details: addition of L-arabinose, trfA under PBAD acting on oriV
From the text: In the absence of L-arabinose, just one copy of this plasmid per bacterial cell is maintained, regulated by the origin of replication derived from the F plasmid of Escherichia coli. In addition, this plasmid contains the inducible origin of replication of plasmid RK2, namely oriV. The replicase gene trfA, acting on this origin, is placed under the control of PBAD, as an example for a saccharide inducible promoter.
In order to allow for a convenient analysis of plasmid replication, GFP was placed under control of the weak constitutive Pbla promoter derived from the bla gene, also contained on said vector. The recombinant strain SL7207[pAEN17] was grown into logarithmic phase and either no or 0.1% L-Arabinose was added into bacterial cultures.

PBAD [8] = test: Induction of plasmid replication in bacterial vector within infected J774A1 cells (GFP read-out); format: cell-based, murine; details: SL7207[pAEN17] in J774A1 cells, L-arabinose 4 mM, 40 mM, 400 mM, 3 hours
Method: J774A1 cells, a murine macrophage cell line, were infected with strain SL7207[pAEN17], as described in Example 2. 4 hours after infection, different amounts of L-arabinose were added into individual wells of infected J774A1 cells up to a concentration in the medium of 4 mM, 40 mM and 400 mM, respectively. 3 hours after addition of L-arabinose cells were treated with 0.25% Triton X-100. Bacteria in the lysates were monitored for GFP expression by flow cytometry as described in Example 2. The analytical results are depicted in FIG. 7, with unspecific background fluorescence substracted.

| SMILES | GFP fluorescence relative to background without induction (PBAD [1]) | induction of transgene expression (luciferase, RLU) (CT26 tumor [2]; L-arabinose i.p. three days post infection, tumor, spleen, liver) | transgene activity in spleen and liver (CT26 tumor [2]; spleen and liver) | time of main transgene activity past administration of the inductor saccharide (CT26 tumor [2]; tumor tissue) | absolute transgene activity, comparison of tissues (CT26 tumor [2]; tumor, spleen, liver) | expression of GFP by bacteria recovered from infected animals (PBAD [3]) | fluorescence intensity of GFP (PBAD [4]) | number of viable bacterial vectors inside infected J774A1 cells (CFU) [5] | bioluminescence from lux operon under PBAD (CT26 tumor [6]; 120 mg L-arabinose i.p., repeated administration after L-rhamnose) | copy number of the plasmid pAEN17 (PBAD [7]) | fluorescence intensity of GFP (PBAD [8]) | lysis of bacterial vector and release of TNFalpha (CT26 tumor [6]; 120 mg L-rhamnose i.p. 3 days after vector i.v.) |
| --- | --- | --- | --- | --- | --- | --- | --- | --- | --- | --- | --- | --- |
| O=C[C@H](O)[C@@H](O)[C@@H](O)CO [L-arabinose] | more than two orders above the background fluorescence | induces transgene expression for all tissues tested | very low to about background levels | about 6 hours | greatest in tumor tissue | induced by L-Arabinose in a dose-dependent manner | increases with increasing concentrations of L-arabinose | drastically decreases the number of viable bacterial vectors | bioluminescence | increased copy number | increases with increasing concentrations of L-arabinose | – |
| C[C@H](O)[C@H](O)[C@@H](O)[C@@H](O)C=O [L-rhamnose] | – | – | – | – | – | – | – | – | – | – | – | lysis of bacterial vector and release of TNFalpha was observed |
